Experiment: antimicrobial activity (statement in words)
Assay type: cell-based
Settings: less polar isomer (A) versus more polar isomer (B)

N[C@@H](C(=O)N[C@@H]1C(=O)N2C(C(=O)O)=C(Cl)CC[C@H]12)c1ccccc1 [Example 1, (6R, 7S) 7-(R)-phenylglycinamido-3-chloro-1-azabicyclo[4,2,0]oct-2-en-8-on-2-carboxylic acid]
antimicrobial activity: greater antimicrobial activity
